Laboratory results: patent US12582680B2, “Pharmaceutical composition for prevention, amelioration, or treatment of skin disease” (priority 2019, dated 2026)

Columns and labels:
[1] = system: SPF-Tmem79-KO mouse; assay: Antibiotic in drinking water, dermatitis clinical scores of SPF-Tmem79-KO mouse; assay type: in vivo; settings: 200 mg/mL in drinking water; FIG. 9B
Protocol: For the SPF-Tmem79-KO mouse and the control (SPF-WT mice), the clinical scores were evaluated on a 4-point scale of 0: normal, 1: mild, 2: moderate, and 3: severe for each of the four items of erythema, edema, erosion, and dryness. The degree of inflammation in the skin was evaluated by using the total value of the clinical scores of the four items. In the drawing, the SPF-Tmem79-KO mouse is described as “SPF Tmem79^−/−”, and the SPF-WT mouse is described as “SPF WT”. It can be understood that the SPF-Tmem79-KO mouse developed bimodal dermatitis.
Ampicillin (manufactured by NACALAI TESQUE, INC.) or fusidic acid (manufactured by Sigma-Aldrich Co. LLC.) was suspended in drinking water so as to be 200 mg/mL and the resultant drinking water was administered to the SPF-Tmem79-KO mouse, and the clinical scores were obtained with time.

[2] = system: S. aureus; assay: Sensitivity to antibiotics, culture of skin bacteria in media containing antibiotics, number of colonies; assay type: cell-based; settings: FIGS. 9C and 9D
From the text: (§1) FIG. 9A is a schematic diagram showing an experimental flow. FIG. 9B is a graph that indicates changes over time of clinical scores in the skins of SPF-Tmem79^−/− mice inoculated with ampicillin (Amp) or fusidic acid (FA) being an antibiotic (ABx).
(§2) Further, the sensitivity of S. aureus and S. cohnii to both antibiotics was verified by using the antibiotics. The proliferation of S. aureus was suppressed by any one of the ampicillin and the fusidic acid (FIGS. 9C and 9D).

[3] = system: S. cohnii; assay: as above; assay type: cell-based; settings: FIGS. 9C and 9E
From the text: as §1, §2

[4] = system: GF-WT mouse applied with imiquimod; assay: Imiquimod-initiated inflammation in GF-WT mouse, squalene and mifepristone; assay type: in vivo
Protocol: Imiquimod (Beselna cream, manufactured by MOCHIDA PHARMACEUTICAL CO., LTD.) was applied onto the ears of a GF-WT mouse at a dose of 50 mg per mouse once a day for 5 consecutive days.
Further, in another group of mice, mifepristone (M8046-1G, manufactured by Sigma-Aldrich Co. LLC) was administered to the mice freely at 210 μg/mL in drinking water during the experimental period.

[5] = mifepristone 210 μg/mL in drinking water

| SMILES | degree of dermatitis (clinical scores) [1] | proliferation of S. aureus [2] | proliferation of S. cohnii [3] | suppression of imiquimod-initiated inflammation by S. cohnii, effect of mifepristone [4, 5] | suppression of imiquimod-initiated inflammation by squalene, effect of mifepristone [4, 5] | imiquimod-initiated inflammation (ear swelling and lymph node swelling) ([4]; S. cohnii 2.0×10^7 CFU first 3 days, squalene 200 μl per mouse for 5 days, FIGS. 22B and 22C) |
| --- | --- | --- | --- | --- | --- | --- |
| CC1(C)S[C@@H]2[C@H](NC(=O)[C@H](N)c3ccccc3)C(=O)N2[C@H]1C(=O)O [ampicillin] | alleviation of the dermatitis was not observed | suppressed | significantly suppressed | – | – | – |
| CC(=O)O[C@H]1C[C@@]2(C)[C@@H](C[C@@H](O)[C@H]3[C@@]4(C)CC[C@@H](O)[C@@H](C)[C@@H]4CC[C@@]32C)/C1=C(\CCC=C(C)C)C(=O)O [fusidic acid] | alleviated | suppressed | not suppressed | – | – | – |
| CC#C[C@]1(O)CC[C@H]2[C@@H]3CCC4=CC(=O)CCC4=C3[C@@H](c3ccc(N(C)C)cc3)C[C@@]21C [mifepristone] | – | – | – | inhibited | inhibition of suppressive effect | – |
| CC(C)=CCC/C(C)=C/CC/C(C)=C/CC/C=C(\C)CC/C=C(\C)CCC=C(C)C [squalene] | – | – | – | – | – | almost the same as that of S. cohnii |
